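Where inhibition never reached the appropriate level, the endpoint shown equals the highest concentration tested. Otherwise, values were interpolated linearly from a five-concentration, 48-hour dose response in 96-well plates. The concentration for 50% growth inhibition is given as GI50.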 Activity calls are given as the source filed them. No stated cut-off is given here; in the data, active = GI50 up to about 1.1 µM and inactive = higher.
Columns and labels:
Assay in all cases: DTP human tumour cell line panel, 48 h
[1] = system: A549
[2] = system: K562
[3] = system: COLO 205
[4] = system: SN12C
[5] = system: SF-539
[6] = system: Malme-3M
[7] = system: HCT-116
[8] = system: A498
[9] = system: HOP-92
[10] = system: MCF7
[11] = system: SF-295
[12] = system: SK-MEL-28
[13] = system: ACHN
[14] = system: SNB-19
[15] = system: SK-OV-3
[16] = system: NCI-H23
[17] = system: MDA-MB-231
[18] = system: RPMI-8226
[19] = system: OVCAR-4

CN1CCN(C(=O)c2cn(Cc3cncn3Cc3ccc4c(c3)OCO4)cc2-c2cccc3ccccc23)CC1
GI50 [1]: 16.9 µM (inactive)
GI50 [2]: 3.32 µM (inactive)
GI50 [3]: 14.7 µM (inactive)
GI50 [4]: 17.5 µM (inactive)
GI50 [5]: 21.1 µM (inactive)
GI50 [6]: 3.33 µM (inactive)
GI50 [7]: 4.89 µM (inactive)
GI50 [8]: 0.883 µM (active)
GI50 [9]: 1.03 µM (active)
GI50 [10]: 14.2 µM (inactive)
GI50 [11]: 6.24 µM (inactive)
GI50 [12]: 4.83 µM (inactive)
GI50 [13]: 9.98 µM (inactive)
GI50 [14]: 14.3 µM (inactive)
GI50 [15]: 22.7 µM (inactive)
GI50 [16]: 12.2 µM (inactive)
GI50 [17]: 9.25 µM (inactive)
GI50 [18]: 7.05 µM (inactive)
GI50 [19]: 22.3 µM (inactive)

Clc1ccc(-c2nnc(-c3cccc4ccccc34)o2)cc1Cl
GI50 [1]: > 100 µM (inactive)
GI50 [2]: > 100 µM (inactive)
GI50 [3]: > 100 µM (inactive)
GI50 [4]: > 100 µM (inactive)
GI50 [5]: > 100 µM (inactive)
GI50 [6]: > 100 µM (inactive)
GI50 [7]: > 100 µM (inactive)
GI50 [8]: > 100 µM (inactive)
GI50 [9]: 17.6 µM (inactive)
GI50 [10]: > 100 µM (inactive)
GI50 [11]: > 100 µM (inactive)
GI50 [12]: > 100 µM (inactive)
GI50 [13]: > 100 µM (inactive)
GI50 [14]: > 100 µM (inactive)
GI50 [15]: > 100 µM (inactive)
GI50 [16]: > 100 µM (inactive)
GI50 [17]: > 100 µM (inactive)
GI50 [18]: > 100 µM (inactive)
GI50 [19]: 98.4 µM (inactive)

CN(C)CCNc1nc2c(no[n+]2[O-])c2ccccc12.[O-][Cl+3]([O-])([O-])O
GI50 [1]: 16.7 µM (inactive)
GI50 [2]: 28.8 µM (inactive)
GI50 [3]: 16.9 µM (inactive)
GI50 [4]: 25.6 µM (inactive)
GI50 [5]: 11.5 µM (inactive)
GI50 [6]: 22.5 µM (inactive)
GI50 [7]: 12.4 µM (inactive)
GI50 [8]: 13.7 µM (inactive)
GI50 [9]: 22.1 µM (inactive)
GI50 [10]: 19.7 µM (inactive)
GI50 [11]: 28 µM (inactive)
GI50 [12]: 18.5 µM (inactive)
GI50 [13]: 13.8 µM (inactive)
GI50 [14]: 20.7 µM (inactive)
GI50 [15]: 32.1 µM (inactive)
GI50 [16]: 34.4 µM (inactive)
GI50 [17]: 14.8 µM (inactive)
GI50 [18]: 52.7 µM (inactive)
GI50 [19]: 30.4 µM (inactive)

Cc1cccc(NC2=NCCO2)c1Cl
GI50 [1]: > 100 µM (inactive)
GI50 [2]: > 100 µM (inactive)
GI50 [3]: > 100 µM (inactive)
GI50 [4]: > 100 µM (inactive)
GI50 [5]: > 100 µM (inactive)
GI50 [6]: > 100 µM (inactive)
GI50 [7]: > 100 µM (inactive)
GI50 [8]: > 100 µM (inactive)
GI50 [9]: 32.7 µM (inactive)
GI50 [10]: > 100 µM (inactive)
GI50 [11]: > 100 µM (inactive)
GI50 [12]: > 100 µM (inactive)
GI50 [13]: > 100 µM (inactive)
GI50 [14]: > 100 µM (inactive)
GI50 [15]: > 100 µM (inactive)
GI50 [16]: > 100 µM (inactive)
GI50 [17]: > 100 µM (inactive)
GI50 [18]: > 100 µM (inactive)
GI50 [19]: > 100 µM (inactive)

Reference: ChEMBL document CHEMBL1201862, “PubChem BioAssay data set” (2004)
